# Reference: patent publication US20230203041A1, “ANTAGONISTS OF THE ADENOSINE A2A RECEPTOR” (AdoRx Therapeutics Limited, priority 2020, published 2023)
# Where a name gives a salt, the structure may show the parent alone.
# Columns and labels:
# [1] = molecular target: T1, human Adenosine A2a receptor (Homo sapiens, UniProt P29274); assay: Adenosine receptor TR-FRET binding assay (CA200645 displacement), A2a; conditions: 100 nM CA200645, CHO cell membranes, 2 hours at room temperature
# T1 construct: expressed in transfected cells; host or cells: CHO cell membranes
# [2] = molecular target: T2, human Adenosine A1 receptor (Homo sapiens, UniProt P30542); assay: Adenosine receptor TR-FRET binding assay (CA200645 displacement), A1
# T2 sequence (P30542 1-326): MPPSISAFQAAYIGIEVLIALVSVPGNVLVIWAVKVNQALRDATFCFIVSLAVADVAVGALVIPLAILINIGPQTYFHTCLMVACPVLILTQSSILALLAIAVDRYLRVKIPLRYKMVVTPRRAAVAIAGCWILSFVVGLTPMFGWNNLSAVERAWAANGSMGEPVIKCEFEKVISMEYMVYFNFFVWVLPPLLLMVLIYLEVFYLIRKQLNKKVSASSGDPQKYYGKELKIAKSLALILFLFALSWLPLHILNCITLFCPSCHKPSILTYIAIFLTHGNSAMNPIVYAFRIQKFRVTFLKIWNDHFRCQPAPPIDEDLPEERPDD
# human PBMCs = assay: CD3/CD28 stimulated IL-2 release NECA reversal assay in human PBMCs; assay type: cell-based; conditions: PBMC, CD3/CD28 antibody stimulated, 1 uM NECA, 24 hours, IL-2 in culture supernatant;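 also: dose-response as % inhibition where 100% equals no-NECA control wells with CD3/CD28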
# Experimental: Blood is drawn from healthy volunteers using sodium citrate as the anticoagulant (0.3% final concentration). After centrifugation of the blood over Histopaque-1077, PBMCs are collected from the Histopaque/plasma interface and washed twice in PBS (300 g for 10 mins at room temp). Cells are plated at 50,000 cells/well in 150 μl RPMI/10% FCS in 96-well cell culture plates that have been precoated with 1 ug/ml CD3 antibody. 50 μl diluted compound mix is added to the cells, to obtain final concentrations of 1 ug/ml CD28 antibody, 1 uM NECA and 0.003-10 μM adenosine receptor antagonist. Assay plates are incubated for 24 hours at 37° C. in a humidified incubator. Culture supernatant is tested for IL-2 levels using the human IL-2 Tissue Culture Kit (Meso Scale Discovery).
# [3] = molecular target: T3, human Adenosine A2b receptor (Homo sapiens, UniProt P29275); assay: Adenosine receptor TR-FRET binding assay (CA200645 displacement), A2b; conditions: 30 nM CA200645, CHO cell membranes, 2 hours at room temperature
# T3 construct: expressed in transfected cells; host or cells: CHO cell membranes
# T3 sequence (P29275 1-332): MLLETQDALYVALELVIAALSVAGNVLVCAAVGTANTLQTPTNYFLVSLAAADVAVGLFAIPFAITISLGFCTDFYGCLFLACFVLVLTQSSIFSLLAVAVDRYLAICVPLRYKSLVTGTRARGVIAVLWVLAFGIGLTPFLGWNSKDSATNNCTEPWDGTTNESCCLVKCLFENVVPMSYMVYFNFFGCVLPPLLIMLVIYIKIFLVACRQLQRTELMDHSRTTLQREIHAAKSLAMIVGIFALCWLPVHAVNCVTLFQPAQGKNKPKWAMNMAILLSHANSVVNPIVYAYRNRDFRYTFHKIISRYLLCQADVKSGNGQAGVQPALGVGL
# [4] = molecular target: T4, human Adenosine A3 receptor (Homo sapiens, UniProt P0DMS8); assay: Adenosine receptor TR-FRET binding assay (CA200645 displacement), A3
# T4 sequence (P0DMS8 1-318): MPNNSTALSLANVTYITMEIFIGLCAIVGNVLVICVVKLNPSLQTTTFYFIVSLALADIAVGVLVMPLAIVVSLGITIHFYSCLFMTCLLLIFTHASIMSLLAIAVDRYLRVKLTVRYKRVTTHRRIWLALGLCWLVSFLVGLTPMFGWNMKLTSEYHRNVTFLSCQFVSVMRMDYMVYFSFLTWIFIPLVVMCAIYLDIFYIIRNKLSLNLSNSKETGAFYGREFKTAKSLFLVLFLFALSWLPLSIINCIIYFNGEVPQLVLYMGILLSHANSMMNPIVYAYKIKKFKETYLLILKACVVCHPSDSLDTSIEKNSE
# T1 sequence (P29274 whole entry): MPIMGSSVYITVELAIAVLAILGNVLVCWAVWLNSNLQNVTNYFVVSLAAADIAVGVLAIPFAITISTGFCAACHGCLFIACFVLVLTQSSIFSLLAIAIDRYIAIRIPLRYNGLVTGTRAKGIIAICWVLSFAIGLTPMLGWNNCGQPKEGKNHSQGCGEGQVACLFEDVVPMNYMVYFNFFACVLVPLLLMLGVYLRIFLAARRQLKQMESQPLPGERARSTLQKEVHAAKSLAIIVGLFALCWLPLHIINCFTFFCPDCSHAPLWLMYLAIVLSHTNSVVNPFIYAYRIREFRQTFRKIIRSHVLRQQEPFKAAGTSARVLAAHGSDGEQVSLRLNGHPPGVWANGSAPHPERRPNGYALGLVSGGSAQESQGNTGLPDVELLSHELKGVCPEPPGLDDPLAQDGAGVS
Ki [1],Ki [2],Ki [3],Ki [4],SMILES,IC50 (human PBMCs)
26.5 nM,322 nM,1420 nM,> 1000 nM,"N#Cc1c(-c2ccco2)nn2ccc(N3CCN(Cc4c(F)cc(F)cc4F)CC3)nc12 [Example 51.1, 2-(2-Furyl)-5-[4-[(2,4,6-trifluorophenyl)methyl]piperazin-1-yl]pyrazolo [1,5-a]pyrimidine-3-carbonitrile]",16 nM
5.8 nM,175 nM,22 nM,> 1000 nM,Cc1cc(-c2c(-c3cccc(C#N)c3)nn3ccc(C(=O)NCC4CNC(=O)C4)nc23)cc(C)n1 (stereo not drawn) [Example 92.26],–
9.8 nM,112 nM,13 nM,> 1000 nM,"Cc1cc(-c2c(-c3cccc(C#N)c3)nn3ccc(NC(=O)NCC(C)(C)N)nc23)cc(Cl)n1 [Example 31.4, 1-(2-Amino-2-methyl-propyl)-3-[3-(2-chloro-6-methyl-4-pyridyl)-2-(3-cyanophenyl)pyrazolo[1,5-a]pyrimidin-5-yl]urea trifluoroacetate]",–
6.6 nM,210 nM,16 nM,> 1000 nM,Cc1cc(-c2c(-c3cccc(C#N)c3)nn3ccc(C(=O)NC[C@H]4CNC(=O)C4)nc23)cc(C)n1 [Example 92.27],–
1.1 nM,246 nM,28 nM,> 1000 nM,Cc1cc(-c2c(-c3cccc(C#N)c3)nn3ccc(C(=O)NCC4(C)NC(=O)NC4=O)nc23)cc(C)n1 (stereo not drawn) [Example 92.17],–
5.5 nM,612 nM,5 nM,> 1000 nM,"Cc1cc(-c2c(-c3cccc(C#N)c3)nn3ccc(C(=O)N[C@H]4CNC[C@@H]4O)nc23)cc(Cl)n1 [Example 7.5, 3-(2-Chloro-6-methyl-4-pyridyl)-2-(3-cyanophenyl)-N-[trans-(3S,4S)-4-hydroxypyrrolidin-3-yl]pyrazolo[1,5-a]pyrimidine-5-carboxamide]",–
44.3 nM,459 nM,20 nM,> 1000 nM,"Cc1cc(-c2c(-c3cccc(C#N)c3)nn3ccc(C(=O)N4CCNCC4)nc23)cc(Cl)n1 [Example 7.12, 3-[3-(2-Chloro-6-methyl-4-pyridyl)-5-(piperazine-1-carbonyl)pyrazolo[1,5-a]pyrimidin-2-yl]benzonitrile hydrochloride]",–

# The remaining lines, values behind:
SMILES,Ki [1],Ki [2],Ki [3],Ki [4],IC50 (human PBMCs)
"N#Cc1c(-c2ccccc2F)nn2ccc(NCc3ccccc3)nc12 [Example 35, 5-(Benzylamino)-2-(2-fluorophenyl)pyrazolo[1,5-a]pyrimidine-3-carbonitrile]",4.5 nM,4 nM,122 nM,–,408 nM
"c1ccc(CNc2ccn3nc(-c4ccco4)cc3n2)cc1 [Example 48, N-Benzyl-2-(2-furyl)pyrazolo[1,5-a]pyrimidin-5-amine]",16.6 nM,137 nM,1170 nM,41 nM,1890 nM
Cc1cc(-c2c(-c3cccc(C#N)c3)nn3ccc(C(=O)NC4COC4)nc23)cc(Cl)n1 [Example 5.5],1.7 nM,200 nM,55 nM,> 1000 nM,21 nM
"N#Cc1cccc(-c2nn3ccc(NCc4ccccc4)nc3c2C#N)c1 [Example 58, 5-(Benzylamino)-2-(3-cyanophenyl)pyrazolo[1,5-a]pyrimidine-3-carbonitrile]",2 nM,83 nM,–,> 1000 nM,118 nM
"Cn1cc(-c2c(-c3ccco3)nn3ccc(NCc4ccccc4)nc23)cn1 [Example 53, N-benzyl-2-(2-furyl)-3-(1-methylpyrazol-4-yl)pyrazolo[1,5-a]pyrimidin-5-amine]",27.7 nM,214 nM,–,618 nM,128 nM
"N#Cc1c(-c2cccc(F)c2)nn2ccc(NCc3ccccc3)nc12 [Example 70, 5-(Benzylamino)-2-(3-fluorophenyl)pyrazolo[1,5-a]pyrimidine-3-carbonitrile]",2.2 nM,2 nM,181 nM,–,177 nM
"N#Cc1c(-c2ccco2)nn2ccc(NCc3ccccc3)nc12 [Example 45, 5-(Benzylamino)-2-(2-furyl)pyrazolo[1,5-a]pyrimidine-3-carbonitrile]",0.5 nM,6 nM,74 nM,–,107 nM
Cc1cc(-c2c(-c3cccc(C#N)c3)nn3ccc(NC4CN5CCC4CC5)nc23)cc(Cl)n1 (stereo not drawn) [Example 2.17],2.4 nM,45 nM,6 nM,> 1000 nM,–
"N#Cc1cccc(-c2nn3ccc(N4CCN(CCF)CC4)nc3c2C#N)c1 [Example 87, 2-(3-Cyanophenyl)-5-[4-(2-fluoroethyl)piperazin-1-yl]pyrazolo[1,5-a]pyrimidine-3-carbonitrile]",23.6 nM,2280 nM,–,> 1000 nM,57 nM
"Cc1cc(-c2c(-c3cccc(C#N)c3)nn3ccc(C(C)(C)O)nc23)cc(Cl)n1 [Example 8, 3-[3-(2-Chloro-6-methyl-4-pyridyl)-5-(1-hydroxy-1-methyl-ethyl)pyrazolo[1,5-a]pyrimidin-2-yl]benzonitrile]",9.9 nM,291 nM,41 nM,> 1000 nM,–
CO[C@H]1CN(C)C[C@@H]1Nc1ccn2nc(-c3cccc(C#N)c3)c(-c3cc(C)nc(Cl)c3)c2n1 [Example 2.5],0.9 nM,24 nM,1 nM,> 1000 nM,–
"N#Cc1c(-c2ncco2)nn2ccc(NCc3ccccc3)nc12 [Example 57, 5-(Benzylamino)-2-oxazol-2-yl-pyrazolo[1,5-a]pyrimidine-3-carbonitrile]",24.7 nM,236 nM,1490 nM,1870 nM,–
Cc1cc(-c2c(-c3cccc(C#N)c3)nn3ccc(N4C[C@@H]5NCCO[C@H]5C4)nc23)cc(Cl)n1 [Example 4.4],3.2 nM,1100 nM,149 nM,> 1000 nM,–
"Cc1cc(-c2c(-c3cccc(C#N)c3)nn3ccc(C(=O)N[C@@H](C)C(C)(C)O)nc23)cc(CO)n1 [Example 100, 2-(3-Cyanophenyl)-N-[(1S)-2-hydroxy-1,2-dimethyl-propyl]-3-[2-(hydroxymethyl)-6-methyl-4-pyridyl]pyrazolo[1,5-a]pyrimidine-5-carboxamide]",0.4 nM,64 nM,28 nM,> 1000 nM,–
"Cc1cc(-c2c(-c3cccc(C#N)c3)nn3ccc(N)nc23)cc(N(C)C)n1 [Example 29, 3-[5-Amino-3-[2-(dimethylamino)-6-methyl-4-pyridyl]pyrazolo[1,5-a]pyrimidin-2-yl]benzonitrile]",15.2 nM,144 nM,56 nM,> 1000 nM,–
"N#Cc1c(-c2ccco2)nn2ccc(NC[C@H]3CCCNC3)nc12 [Example 56, 2-(2-Furyl)-5-(3-piperidylmethylamino)pyrazolo[1,5-a]pyrimidine-3-carbonitrile hydrochloride]",141 nM,521 nM,2700 nM,> 1000 nM,–
Cc1cc(-c2c(-c3cccc(C#N)c3)nn3ccc(O)nc23)cc(Cl)n1 [Example 2.31],15.8 nM,551 nM,70 nM,> 1000 nM,–
